Read-outs that look alike come from different tables or passages of the source.
Legend:
[1] = molecular target: hPIV-3 strain C243 neuraminidase (UniProt P08492, species not given/STRAIN_C243); format: biochemical
hPIV-1 strain C35 [2] = experiment: Haemagglutination inhibition (HI) assay with human red blood cells; format: biochemical; conditions: hPIV1 C35
hPIV-3 strain JS [3] = experiment: as above; format: biochemical; conditions: hPIV3 JS
hPIV-3 strain JS [4] = experiment: In situ ELISA virus growth inhibition in LLC-MK2 cells; format: cell-based; conditions: Human respirovirus 3, LLC-MK2; hPIV3 JS
[5] = system: hPIV-3 strain CI002 (clinical isolate); experiment: Haemagglutination inhibition (HI) assay with human red blood cells; format: biochemical; conditions: hPIV3 CI002
hPIV-3 strain C243 [6] = experiment: In situ ELISA virus growth inhibition in LLC-MK2 cells; format: cell-based; conditions: Human respirovirus 3, LLC-MK2
hPIV-3 strain C243 [7] = experiment: Haemagglutination inhibition (HI) assay with human red blood cells; format: biochemical; conditions: hPIV3 C243
[8] = molecular target: hPIV-3 strain CI002 (clinical isolate) neuraminidase (UniProt P08492, species not given/STRAIN_CI002); format: biochemical; conditions: hPIV3 CI002; read-out: NI IC50
hPIV-3 strain CI002 (clinical isolate) neuraminidase, sequence (P08492 whole entry, change not shown): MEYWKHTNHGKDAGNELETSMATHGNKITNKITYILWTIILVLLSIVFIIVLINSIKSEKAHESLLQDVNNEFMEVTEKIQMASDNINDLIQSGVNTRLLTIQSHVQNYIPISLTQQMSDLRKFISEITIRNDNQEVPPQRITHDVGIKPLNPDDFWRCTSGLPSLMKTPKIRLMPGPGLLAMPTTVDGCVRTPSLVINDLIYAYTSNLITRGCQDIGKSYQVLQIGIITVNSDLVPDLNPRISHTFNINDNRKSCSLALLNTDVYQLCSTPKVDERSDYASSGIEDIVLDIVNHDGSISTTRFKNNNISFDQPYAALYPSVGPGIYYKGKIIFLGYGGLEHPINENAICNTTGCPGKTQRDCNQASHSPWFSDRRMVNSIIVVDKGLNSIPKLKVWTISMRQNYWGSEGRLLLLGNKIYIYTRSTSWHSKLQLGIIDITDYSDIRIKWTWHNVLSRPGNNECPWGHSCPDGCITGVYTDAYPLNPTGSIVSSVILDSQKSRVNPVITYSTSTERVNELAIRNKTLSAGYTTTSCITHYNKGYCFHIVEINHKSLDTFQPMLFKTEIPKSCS

hPIV-1 strain C35 [9] = experiment: In situ ELISA virus growth inhibition; format: cell-based; conditions: hPIV1 C35
[10] = hPIV-3 strain C243, Table 1, read-out: NI (IC50)
[11] = hPIV3 C243, Table 2, read-out: NI IC50

hPIV-3 strain C243 neuraminidase, sequence (P08492 whole entry, change not shown): as above

SMILES	IC50 [1, 10]	IC50 (hPIV-1 strain C35 [2])	IC50 (hPIV-3 strain JS [3])	IC50 (hPIV-3 strain JS [4])	IC50 [5]	IC50 [1, 11]	further results
O=C(O)C1=C[C@H](n2cc3ccccc3n2)[C@@H](NC(=O)C(F)(F)F)[C@H]([C@H](O)[C@H](O)CO)O1 [IE1530-74, Sodium 2,6-anhydro-3,4,5-trideoxy-4-(2H-indazol-2-yl)-5-(2,2,2-trifluoroacetamido)-D-glycero-D-galacto-non-2-enonate]	9.37 µM						
CC(=O)N[C@H]1[C@H]([C@H](O)[C@H](O)CO)OC(C(=O)O)=C[C@@H]1n1cc(-c2ccccc2NC(=O)CNC(=O)c2ccc(N(C)C)cc2)nn1		> 200 µM	14 µM	355 µM	> 200 µM		
CC(=O)N[C@H]1[C@H]([C@H](O)[C@H](O)CO)OC(C(=O)O)=C[C@@H]1n1cc(-c2ccccc2NC(=O)CCCCCn2cc(CO)nn2)nn1 [IE1826-44]	47.2 µM						
CC(=O)N[C@H]1[C@H]([C@H](O)[C@H](O)CO)OC(C(=O)O)=C[C@@H]1n1cc(-c2ccccc2NC(=O)CNC(=O)c2ccccc2)nn1		> 200 µM	20 µM	340 µM	> 200 µM		
CC(=O)N[C@H]1[C@H]([C@H](O)[C@H](O)CO)OC(C(=O)O)=C[C@@H]1n1cc(-c2ccccc2NC(=O)CCCCCCCCCCC(=O)Nc2ccccc2-c2cn([C@H]3C=C(C(=O)O)O[C@@H]([C@H](O)[C@H](O)CO)[C@@H]3NC(C)=O)nn2)nn1 [IE1826-01]	8.09 µM						IC50 (hPIV-3 strain C243 [6]; hPIV-3 strain C243, Table 1): 17.9 µM
CC(=O)N[C@H]1[C@H]([C@H](O)[C@H](O)CO)OC(C(=O)O)=C[C@@H]1n1cc(-c2ccccc2NC(=O)c2cccc(OC(F)(F)F)c2)nn1			> 250 µM	> 500 µM	> 200 µM	47.4 µM	IC50 (hPIV-3 strain C243 [7]): > 200 µM; IC50 (hPIV-3 strain C243 [6]; hPIV3 C243, Table 2): 217 µM
COc1ccc(OC)c2nn([C@H]3C=C(C(=O)O)O[C@@H]([C@H](O)[C@H](O)CO)[C@@H]3NC(=O)C(F)(F)F)cc12						11.2 µM	IC50 (hPIV-3 strain C243 [7]): 14.8 µM; IC50 [8]: 74.2 µM
CC(=O)N[C@H]1[C@H]([C@H](O)[C@H](O)CO)OC(C(=O)O)=C[C@@H]1n1cc(-c2ccccc2NC(=O)CCNS(=O)(=O)Cc2ccccc2)nn1		> 200 µM	> 200 µM		> 200 µM	21.2 µM	IC50 [8]: 53.9 µM
O=C(O)C1=C[C@H](n2cc3cc4c(cc3n2)OCO4)[C@@H](NC(=O)C(F)(F)F)[C@H]([C@H](O)[C@H](O)CO)O1		133 µM			66.7 µM	12.9 µM	IC50 (hPIV-3 strain C243 [7]): 14.8 µM; IC50 [8]: 38.9 µM
CC(=O)N[C@H]1[C@H]([C@H](O)[C@H](O)CO)OC(C(=O)O)=C[C@@H]1n1cc(-c2ccccc2NC(=O)CNC(=O)c2ccc(-c3ccccc3)cc2)nn1		> 200 µM	6.4 µM	60.7 µM	44.5 µM		IC50 (hPIV-3 strain C243 [6]; hPIV3 C243, Table 2): 23.7 µM
O=C(O)C1=C[C@H](n2cc3ccc(F)cc3n2)[C@@H](NC(=O)C(F)(F)F)[C@H]([C@H](O)[C@H](O)CO)O1		133 µM			22.2 µM	12.9 µM	IC50 [8]: 103 µM
COc1c(F)c(F)cc(C(=O)Nc2ccccc2-c2cn([C@H]3C=C(C(=O)O)O[C@@H]([C@H](O)[C@H](O)CO)[C@@H]3NC(C)=O)nn2)c1F		> 200 µM	> 250 µM	764 µM		32.8 µM	IC50 (hPIV-3 strain C243 [6]; hPIV3 C243, Table 2): 177 µM
CC(=O)N[C@H]1[C@H]([C@H](O)[C@H](O)CO)OC(C(=O)O)=C[C@@H]1n1cc(-c2ccccc2NC(=O)CNS(=O)(=O)c2ccc([N+](=O)[O-])cc2)nn1		> 200 µM	8 µM	240 µM	23.9 µM		IC50 (hPIV-1 strain C35 [9]): > 200 µM; IC50 (hPIV-3 strain C243 [6]; hPIV3 C243, Table 2): 63.9 µM
O=C(O)C1=C[C@H](n2nnc3c4ccccc4ccc32)[C@@H](NC(=O)C(F)(F)F)[C@H]([C@H](O)[C@H](O)CO)O1 [IE1778-74]	0.568 µM						IC50 (hPIV-3 strain C243 [6]; hPIV-3 strain C243, Table 1): 1.87 µM
CC(=O)N[C@@H]1[C@@H]([C@@H](O)[C@@H](O)CO)OC(C(=O)O)=C[C@H]1n1cc(-c2ccccc2NC(=O)CCCCCn2cc(CCCc3cn(CCCCCC(=O)Nc4ccccc4-c4cn([C@H]5C=C(C(=O)O)O[C@@H]([C@H](O)[C@H](O)CO)[C@@H]5NC(C)=O)nn4)nn3)nn2)nn1 [IE1826-14]	8.22 µM						
CC(=O)N[C@@H]1[C@@H]([C@@H](O)[C@@H](O)CO)OC(C(=O)O)=C[C@H]1n1cc(-c2ccccc2NC(=O)CCCCc2cn(CCCCCC(=O)Nc3ccccc3-c3cn([C@H]4C=C(C(=O)O)O[C@@H]([C@H](O)[C@H](O)CO)[C@@H]4NC(C)=O)nn3)nn2)nn1 [IE1826-28]	14 µM						
CC(=O)N[C@H]1[C@H]([C@H](O)[C@H](O)CO)OC(C(=O)O)=C[C@@H]1n1cc(-c2ccccc2NC(=O)CCCCCn2cc(-c3ccccc3)nn2)nn1 [IE1826-30]	24.3 µM						
COCc1cn(CCCCCC(=O)Nc2ccccc2-c2cn([C@H]3C=C(C(=O)O)O[C@@H]([C@H](O)[C@H](O)CO)[C@@H]3NC(C)=O)nn2)nn1 [IE1826-38]	24.2 µM						
